# Assay results as given in patent publication EP0435794A1, “Alkenyl- or heteroaryl thio, sulfone, sulfoxy herbicides” (RHONE-POULENC AGROCHIMIE, priority 1989, dated 1991).
# Legend:
# Format in all cases: in vivo
# Alopecurus myosuroïdes = assay: Exemple A: herbicide application, pre-emergence; settings: dose 4 Kg m.a./ha, notation 0 à 5 after 24 days
# Source text: (§1) Exemple A - Application herbicide, en prélevée des espèces végétales
# (§2) Dans des pots de 7 x 7 x 8 cm remplis de terre agricole légère, on sème un nombre de graines déterminé en fonction de l'espèce végétale et de la grosseur de la graine.
# (§3) Les pots sont traités par pulvérisation de bouillie en quantité correspondant à une dose volumique d'application de 500 l/ha et contenant la matière active à la concentration désirée.
# (§4) Le traitement avec la bouillie est donc effectué sur des graines non recouvertes de terre (on utilise le terme de bouillie pour désigner, en général, les compositions diluées à l'eau, telles qu'on les applique sur les végétaux).
# (§5) La bouillie utilisée pour le traitement est une solution ou suspension de la matière active dans un mélange acétone/eau en proportions 50/50, en présence de 0,05 % en poids de cemulsol NP 10 (agent tensio-actif) constitué d'alkylphénol polyéthoxylé, notamment de nonylphénol polyéthoxylé) et 0,04 % en poids de tween 20 (agent tensio-actif constitué d'un oléate de dérivé polyoxyéthyléné du sorbitol).
# (§6) Dans le cas d'une suspension, celle-ci est obtenue en mélangeant et broyant les ingrédients dans un microniseur de façon à obtenir une grosseur moyenne de particules inférieure à 40 microns.
# (§7) Après traitement, on recouvre les graines d'une couche de terre d'environ 3 mm d'épaisseur.
# (§8) Les pots sont alors placés dans des bacs destinés à recevoir l'eau d'arrosage, en subirrigation, et maintenus pendant 24 jours à température ambiante sous 70 % d'humidité relative.
# (§9) Le relevé est effectué de la façon suivante:
# (§10) Au bout de 24 jours, on mesure un pourcentage (D) des destructions du nombre de pieds dans le pot traité par rapport au nombre de plantes dans les pots non traités (témoin). On mesure, sur les plantes traitées restantes, le pourcentage de réduction de taille (RT) par rapport aux plantes témoin.
# (§11) Le pourcentage du volume foliaire non détruit par le produit est donc donné par la formule: ([100-D] x [100-RT])/(100)= A [formula]
# (§12) Cette valeur A est transformée en notation de 0 à 5 selon l'échelle suivante:
# (§13) Les résultats obtenus sont présentés après l'exemple B pour des doses d'application de 4000 g/ha à 1000 g/ha.
# (§14) Les espèces végétales utilisées dans ces exemples A et B sont: […]
# Avena fatua = assay: Exemple A: herbicide application, pre-emergence; settings: dose 4 Kg m.a./ha, notation 0 à 5 after 24 days
# Source text: as §1, §2, §3, §4, §5, §6, §7, §8, §9, §10, §11, §12, §13, §14
# Cyperus esculentus = assay: Exemple A: herbicide application, pre-emergence; settings: dose 4 Kg m.a./ha, notation 0 à 5 after 24 days
# Source text: as §1, §2, §3, §4, §5, §6, §7, §8, §9, §10, §11, §12, §13, §14
# Digitaria sanguinalis = assay: Exemple A: herbicide application, pre-emergence; settings: dose 4 Kg m.a./ha, notation 0 à 5 after 24 days
# Source text: as §1, §2, §3, §4, §5, §6, §7, §8, §9, §10, §11, §12, §13, §14
# Echinochloa crus galli [1] = assay: Exemple A: herbicide application, pre-emergence; settings: dose 4 Kg m.a./ha, notation 0 à 5 after 24 days
# Source text: as §1, §2, §3, §4, §5, §6, §7, §8, §9, §10, §11, §12, §13, §14
# [2] = test system: ORYSA SATIVA Cv Nihonbare; assay: Exemple D: herbicide application on submerged plants (rice paddy model), transplanted rice; settings: rice transplanted 4 days before treatment, 24 days
# Source text: (§15) Exemple D : Application herbicide en pré ou post levée d'espèces végétales submergées (modèle rizière)
# (§16) Dans des pots de 9 x 9 x 9 cm remplis de terre agricole on sème un nombre de graines ou on plante un nombre de bulbes ou rhizomes déterminé en fonction de l'espèce végétale ou de la grosseur des organes. Pour le riz, 4 plants au stade 2-3 feuilles sont transplantés dans un pot rempli de terre végétale 4 jours avant le traitement.
# (§17) Les pots sont ensuite immergés dans un bac de taille adapté aux pots de manière à ce que l'eau recouvre de 1 à 2 cm la surface du sol.
# (§18) Le stade de traitement est le stade prélevée ou 1 à 2 feuilles développées des adventices. Le traitement est effectué par répartition de la bouillie dans l'eau de submersion en quantité correspondant à une dose d'application de 500 l/ha et contenant la matière active à la concentration requise.
# as §5, with “proportion” for “proportions”, “Cemulsol” for “cemulsol”, “tensioactif” for “tensio-actif)”
# (§19) Dans le cas d'une suspension, celle-ci est obtenue en mélangeant et broyant les ingrédients dans un microniseur de façon à obtenir une grosseur moyenne de particules inférieures à 40 microns.
# (§20) Le niveau d'eau de submersion est ensuite maintenu par apport d'eau tout au long de la durée de l'expérimentation soit […]. Les bacs contenant les pots sont placés dans une serre régulée en température à 18°C la nuit et 22°C le jour et en humidité à 70 % d'humidité relative.
# (§21) Au bout de 24 jours, on compte le nombre de plantes vivantes dans les pots traités par la bouillie contenant la matière active à tester et le nombre de plantes vivantes dans un pot témoin traité selon les mêmes conditions, mais au moyen d'une bouillie ne contenant pas de matière active. On mesure ainsi un pourcentage (D) des destructions du nombre de pieds dans le pot traité par rapport au nombre de plantes dans les pots non traités (témoin). On mesure, sur les plantes traitées restantes, le pourcentage de réduction de taille (RT) par rapport aux plantes témoin. Le pourcentage du volume foliaire non détruit par le produit est donc donné par la formule: ([100-D] x [100-RT])/(100)= A [formula]
# as §12
# (§22) Les résultats obtenus sont présentés dans le tableau suivant pour des doses d'application de 500, 1000 ou 2000 g de matière active par hectare.
# COMPOSE N°5/RIZ (transplanté 4 jours avant traitement)
# ALISMA CANALICULATUM = assay: Exemple D: herbicide application pre or post emergence on submerged plants (rice paddy model); settings: 2-leaf stage, 24 days
# Source text: as §15, §16, §17, §18
# as §5, with “proportion” for “proportions”, “Cemulsol” for “cemulsol”, “tensioactif” for “tensio-actif)”
# as §19, §20, §21, §12, §22
# CYPERUS SEROTINUS = assay: as above; settings: 24 days; for % d'efficacité CYPERUS SEROTINUS (1 feuille): 1-leaf stage; for % d'efficacité CYPERUS SEROTINUS (prélevée): pre-emergence
# Source text: as §15, §16, §17, §18
# as §5, with “proportion” for “proportions”, “Cemulsol” for “cemulsol”, “tensioactif” for “tensio-actif)”
# as §19, §20, §21, §12, §22
# Echinochloa crus galli [3] = assay: as above; settings: 24 days; for % d'efficacité ECHINOCHLOA CRUS GALLI (1 feuille): 1-leaf stage; for % d'efficacité ECHINOCHLOA CRUS GALLI (prélevée): pre-emergence
# Source text: as §15, §16, §17, §18
# as §5, with “proportion” for “proportions”, “Cemulsol” for “cemulsol”, “tensioactif” for “tensio-actif)”
# as §19, §20, §21, §12, §22
# [4] = 500 g de matière active par hectare
# [5] = 1000 g de matière active par hectare
# [6] = 2000 g de matière active par hectare
smiles,measurement,setting,value
"C=C(CS(=O)(=O)c1sccc1Cl)c1cccc(F)c1 [compound 5, 1-[(3-chloro 2-thiényl)sulfonyl] 2-(3-fluorophényl) 2-propène]",ACTIVITE HERBICIDE DE PRELEVEE ALO,Alopecurus myosuroïdes,5 (O à 10)
same,ACTIVITE HERBICIDE DE PRELEVEE AVE,Avena fatua,5 (O à 10)
same,ACTIVITE HERBICIDE DE PRELEVEE CYP,Cyperus esculentus,5 (O à 10)
same,ACTIVITE HERBICIDE DE PRELEVEE DIG,Digitaria sanguinalis,5 (O à 10)
same,ACTIVITE HERBICIDE DE PRELEVEE ECH,Echinochloa crus galli [1],5 (O à 10)
same,% d'efficacité ORYSA SATIVA Cv Nihonbare,[2]; [4],0 (90 à 100)
same,% d'efficacité ORYSA SATIVA Cv Nihonbare,[2]; [5],0 (90 à 100)
same,% d'efficacité ORYSA SATIVA Cv Nihonbare,[2]; [6],0 (90 à 100)
same,% d'efficacité ALISMA CANALICULATUM (2 feuilles),ALISMA CANALICULATUM; [4],3 (30 à 50)
same,% d'efficacité ALISMA CANALICULATUM (2 feuilles),ALISMA CANALICULATUM; [5],4 (10 à 30)
same,% d'efficacité ALISMA CANALICULATUM (2 feuilles),ALISMA CANALICULATUM; [6],4 (10 à 30)
same,% d'efficacité CYPERUS SEROTINUS (1 feuille),CYPERUS SEROTINUS; [4],3 (30 à 50)
same,% d'efficacité CYPERUS SEROTINUS (1 feuille),CYPERUS SEROTINUS; [5],4 (10 à 30)
same,% d'efficacité CYPERUS SEROTINUS (1 feuille),CYPERUS SEROTINUS; [6],5 (0 à 10)
same,% d'efficacité CYPERUS SEROTINUS (prélevée),CYPERUS SEROTINUS; [4],2 (50 à 70)
same,% d'efficacité CYPERUS SEROTINUS (prélevée),CYPERUS SEROTINUS; [5],5 (0 à 10)
same,% d'efficacité CYPERUS SEROTINUS (prélevée),CYPERUS SEROTINUS; [6],5 (0 à 10)
same,% d'efficacité ECHINOCHLOA CRUS GALLI (1 feuille),Echinochloa crus galli [3]; [4],4 (10 à 30)
same,% d'efficacité ECHINOCHLOA CRUS GALLI (1 feuille),Echinochloa crus galli [3]; [5],4 (10 à 30)
same,% d'efficacité ECHINOCHLOA CRUS GALLI (1 feuille),Echinochloa crus galli [3]; [6],4 (10 à 30)
same,% d'efficacité ECHINOCHLOA CRUS GALLI (prélevée),Echinochloa crus galli [3]; [4],5 (0 à 10)
same,% d'efficacité ECHINOCHLOA CRUS GALLI (prélevée),Echinochloa crus galli [3]; [5],5 (0 à 10)
same,% d'efficacité ECHINOCHLOA CRUS GALLI (prélevée),Echinochloa crus galli [3]; [6],5 (0 à 10)
